# Reference: patent publication US11000555B2, “Method for preparing a limax compound and therapeutic use thereof” (GUANGXI JIUFU BIOTECHNOLOGY CO., LTD, priority 2017, dated 2021)
# Marks after values point to notes of the source that are not given here.
# Columns and labels:
# [1] = test system: morphine-dependent rats; test: Therapeutic effect on naloxone-induced withdrawal symptoms of morphine-dependent rats; format: in vivo, Sprague-Dawley (SD) rats; conditions: for Scores of induced withdrawal symptoms of rats: naloxone 5.0 mg/kg ip, 30 min
# Procedure: The administration continued for 3 days for each group of rats. Rats were free to drink and eat. Naloxone (5.0 mg/kg, ip) was given 45 min after administrations on d1 and d3 during the treatment to induce withdrawal symptoms, and withdrawal reaction in 30 min and body weights one hour before and after the inducement were observed.
# Times of shaking like a wet dog, stereotyped acts, erecting and jumping in 30 minutes were directly scored; symptoms such as ptosis, irritability, tooth tremor, chewing, pilus erection, abnormal posture and rapid respiration were scored every 5 minutes; symptoms such as diarrhea, lacrimation, salivation and rhinorrhea were scored every 30 minutes. The sum of all scores was the total score of the withdrawal reaction. See Appendix Table 2.
# [2] = test system: rats; test: Physical dependence test: induced withdrawal test for the rats; conditions: rat, in vivo
# Procedure: The compound group was administered (ig) twice a day according to the dose increasing principle, at daily doses of 0.5, 1.0, 1.5, 2.0, 2.5, 3.0 g/kg. The dose was increased every day from 0.5 g/kg to 3.0 g/kg on day 6 which was adopted the same on day 7. The negative control group was given (ig) the same volume of vegetable oil per day at the same time and for the same times as the compound group. On day 8, the rats in each group were given naloxone (5 mg/kg, ip) to induce withdrawal, and the withdrawal status of the rats within 30 min and the weight change one hour before and after the inducement were observed. The evaluation criteria of withdrawal symptoms of rats were established by referring to the Tomoji Yanagita evaluation criteria and our pre-experimental results (see Appendix Table 17). The withdrawal scores and weight loss values of each group of rats were statistically processed. Weight loss value=weight before inducement−weight after inducement.
# [3] = Solubility; format: physicochemical
# [4] = test system: mice; test: Physical dependence test: induced withdrawal test for the mice; conditions: mouse, in vivo
# Procedure: The daily doses were 25, 50, 75, 100, 125, 150 mg/kg according to the dose increasing principle, increased day by day, reached 150 mg/kg on day 6 which was adopted the same on day 7. The compound group was administered (ig) twice daily (8:00 am, 8:00 pm) at daily doses of 0.6, 1.2, 1.8, 2.4, 3.0, 3.6 g/kg. The dose increased every day from 0.6 g/kg to 3.6 g/kg on day 6 which was adopted the same on day 7. The negative control group was given (ig) the same volume of vegetable oil every day at the same time and for the same times as the compound group. On day 7, naloxone (8 mg/kg, ip) was given to each group of mice to induce withdrawal. The jump reaction within 30 min and weight change one hour before and after inducement were observed. Weight loss value=weight before inducement−weight after inducement.
# [5] = test system: mice; test: Amphetamine-induced hyperexcitability test of mice; format: in vivo, Kunming mice
# Procedure: (§1) Forty Kunming mice, half males and half females, were fasted for 12 h but free to drink water. The mice were randomly divided into four groups: a blank control group, a low does Compound group (0.4 g/kg, ig), a high dose Compound group (0.8 g/kg, ig) and a positive drug control group (Estazolam, 2 mg/kg). The mice were placed into the YLS-1A multifunctional recorder for spontaneous activities of small animals. After 5 minutes of adaptation, the number of the mice's spontaneous activities before administration were recorded, and the recording lasted for 10 minutes. The room was kept quiet during recording, at a room temperature of 20-24° C. After this, each group of mice was administered according to the above doses, and the blank control group was given the same volume of normal saline (ig). Thirty minutes after administration, each mouse was given an intraperitoneal injection of amphetamine (8 mg/kg). Fifteen minutes later, the mice were placed in the recorder to observe and record the number of activities within 10 min.
# [6] = test system: mice; test: Inducing the mice to sleep by a subthreshold dose of pentobarbital sodium; format: in vivo, Kunming mice; conditions: for Number of the mice showing disappearance of righting reflex: pentobarbital sodium 30 mg/kg ip, n = 20
# Procedure: Eighty Kunming mice, half males and half females, were fasted for 12 h but free to drink water. The mice were randomly divided into four groups: a blank control group, a low does Compound group (0.4 g/kg, ig), a high dose Compound group (0.8 g/kg, ig) and a positive drug control group (Estazolam, 2 mg/kg). each group of mice was administered according to the above doses (ig), and the blank control group was given the same volume of normal saline. Forty-five minutes later, each mouse was given (ip) 30 mg/kg pentobarbital sodium, and the number of mice falling asleep within 15 min was recorded by taking the absence of righting reflex more than 1 min as the indicator of falling asleep.
# [7] = test system: morphine-induced place preference of mice; test: Conditioned place preference of morphine-induced mice; format: in vivo, Kunming mice
# Procedure: The mice were acclimatized for 3 days, the natural place preference time of the mice was measured before the administration, so that the mice with obvious preference on one cuboid of the experimental box were excluded to clear the effect of unconditional place preference on the results. […] The observation was conducted under sound insulation conditions. […] Thus, the white cuboid was used as the non-preferred side (i.e., the companion box).
# After 6 consecutive days of training and administration, the mice developed conditioned place preference.
# Each group was administered for 3 consecutive days.
# [8] = test system: mice; test: Mouse spontaneous activity test; format: in vivo, Kunming mice
# Procedure: as §1, with “and the number of spontaneous activities within 10 min were recorded 45 min later. The blank control” for “and the blank control”, “saline (ig).” for “saline (ig). Thirty minutes after administration, each mouse was given an intraperitoneal injection of amphetamine (8 mg/kg). Fifteen minutes later, the mice were placed in the recorder to observe and record the number of activities within 10 min.”
# [9] = Before administration, high dose group
# [10] = Before administration, low dose group
smiles,measurement,setting,value
"CC1(C)O[C@H]2CC[C@@]3(C)[C@@H]([C@@H](O)[C@H](O)[C@@H]3[C@@](C)(O)CC[C@@H]3OC(C)(C)[C@H]4CC[C@]3(C)O4)[C@]2(C)CC[C@H]1O [the compound, limaxol A]",Body Weight Change (Body Weight before Inducement − Body Weight after Inducement),"[1]; d 1, high dose 0.6 g/kg ig",14.7 ± 4.08 g
same,Scores of induced withdrawal symptoms of rats,"[1]; d 1, high dose 0.6 g/kg ig",53.8 ± 16.23
same,Body Weight Change (Body Weight before Inducement − Body Weight after Inducement),"[1]; d 1, low dose 0.3 g/kg ig",11.8 ± 3.25 g
same,Scores of induced withdrawal symptoms of rats,"[1]; d 1, low dose 0.3 g/kg ig",74.9 ± 42.03
same,Body Weight Change (Body Weight before Inducement − Body Weight after Inducement),"[1]; d 3, high dose 0.6 g/kg ig",1.9 ± 2.13 g
same,Scores of induced withdrawal symptoms of rats,"[1]; d 3, high dose 0.6 g/kg ig",22.1 ± 10.90
same,Body Weight Change (Body Weight before Inducement − Body Weight after Inducement),"[1]; d 3, low dose 0.3 g/kg ig",4.5 ± 2.59 g
same,Scores of induced withdrawal symptoms of rats,"[1]; d 3, low dose 0.3 g/kg ig",25.5 ± 12.26
same,Effect on changes of the body weight of rats,"[1]; two doses (0.3, 0.6 g/kg) ig",no significant effect
same,Effect on withdrawal symptoms of morphine-dependent rats,"[1]; two doses (0.3, 0.6 g/kg) ig",partially control the withdrawal symptoms
same,"Withdrawal symptoms after administration of the compound, rats",[2],no obvious withdrawal symptoms
same,solubility,[3]; in acid and alkali,insoluble
same,solubility,"[3]; in ethanol, ethyl acetate, trichloromethane (hot)",soluble
same,solubility,"[3]; in methanol, acetone",easily soluble
same,solubility,[3]; in trichloromethane (cold),slightly soluble
same,solubility,[3]; in water,insoluble
same,Behaviour of mice after administration,[4],quiet without tail erecting reaction or excitatory movement
same,"Withdrawal symptoms after administration of the compound, mice",[4],no obvious withdrawal symptoms
same,Effect on excitability induced by amphetamine,"[5]; 0.4, 0.8 g/kg, ig",inhibit the increase of excitability induced by morphine and amphetamine
same,"Number of activities, amphetamine-induced excitability","[5]; After administration, high dose 0.8 g/kg ig, amphetamine 8 mg/kg",132.6 ± 26.26**^Δ▴▴ Times per min
same,"Number of activities, amphetamine-induced excitability","[5]; After administration, low dose 0.4 g/kg ig, amphetamine 8 mg/kg",130.6 ± 32.11**^Δ▴ Times per min
same,"Number of activities, amphetamine-induced excitability",[5]; [9],197.4 ± 39.30 Times per min
same,"Number of activities, amphetamine-induced excitability",[5]; [10],192.0 ± 45.06 Times per min
same,"Effect on number of mice that fell asleep, sub-threshold pentobarbital sodium","[6]; 0.4, 0.8 g/kg, ig",increase the number of mice that fell asleep
same,Number of the mice showing disappearance of righting reflex,[6]; high dose 0.8 g/kg ig,8 per group
same,Number of the mice showing disappearance of righting reflex,[6]; low dose 0.4 g/kg ig,11 per group
same,Duration of mice staying in companion box,"[7]; After administration, high dose 0.8 g/kg ig 3 days + morphine 9 mg/kg sc, 15 min observation",511.8 ± 90.66*^ΔΔ s
same,Duration of mice staying in companion box,"[7]; After administration, low dose 0.4 g/kg ig 3 days + morphine 9 mg/kg sc, 15 min observation",438.1 ± 116.45^#Δ s
same,Duration of mice staying in companion box,"[7]; Before administration (base line), high dose 0.8 g/kg + morphine 9 mg/kg group",256.3 ± 114.43 s
same,Duration of mice staying in companion box,"[7]; Before administration (base line), low dose 0.4 g/kg + morphine 9 mg/kg group",296.0 ± 142.93 s
same,Effect on conditioned place preference of the morphine-induced mice,"[7]; two doses (0.4, 0.8 g/kg) ig for 3 days",no significant effect
same,Effect on spontaneous activity of mice,"[8]; 0.4, 0.8 g/kg, ig",significantly reduce the spontaneous activity of mice
same,Number of spontaneous activities,"[8]; After administration (45 min), high dose 0.8 g/kg ig",84.8 ± 31.69*^Δ▴ per 10 min
same,Number of spontaneous activities,"[8]; After administration (45 min), low dose 0.4 g/kg ig",104.6 ± 42.12^Δ▴▴ per 10 min
same,Number of spontaneous activities,[8]; [9],145.5 ± 82.57 per 10 min
same,Number of spontaneous activities,[8]; [10],165.5 ± 69.20 per 10 min
